Assay results as given in US11806352B2, “Theobromine for increasing HDL-cholesterol” (UPFIELD EUROPE B.V., priority 2010, dated 2023).
Values joined by “and” are separate entries in the source; they are usually repeats but may differ in a detail not shown here. Equal entries are not always repeated.

Assays:
[1] = system: healthy males and females; test: Example 2: same intervention study, blood pressure; type: in vivo, humans
Procedure: In a randomized controlled intervention study with 153 healthy males and females the effect of drinks containing cocoa, added theobromine or a combination of cocoa and added theobromine was assessed on HDL cholesterol (HDL-C). As a secondary objective the effect of the various drinks on total cholesterol (TC), LDL cholesterol (LDL-C), Triglycerides (TG) and blood pressure (BP) was assessed.
After a run-in period of 2 weeks the subjects consumed for 4 weeks daily (in the morning one hour before breakfast) 200 ml acidified dairy drink as in table 5, with added to that 1) none (control drink), 2) 5.9 g cocoa powder (Acticoa, Barry-Callebaut) containing about 500 mg polyphenols and 150 mg theobromine 3) about 850 mg synthetic theobromine (Fagron) and 4) 5.9 g cocoa powder containing 500 mg polyphenols and 150 mg theobromine plus added thereto about 850 mg synthetic theobromine (Fagron) (in total about 1 g theobromine). The synthetic theobromine used was: theobromine complying with European Pharmacopeia 5.7, as available from Fagron, Waregem, Belgium.
Inclusion criteria: generally healthy men and pre-menopausal women, age 40-70, with a 10-year risk of developing CHD<10%, not on active cholesterol-lowering or anti-hypertensive treatment and non-smoking. Details of the subject characteristics are set out in table 6.
The statistical analysis was done according to a full 2×2 factorial design including interaction of theobromine and cocoa. Gender within treatment and baseline blood lipids were included in the model as covariates. A 2 sided p-value<0.05 was considered significant.

[2] = system: healthy males and females; test: Example 2: randomized placebo-controlled 2 by 2 factorial parallel study, dairy drinks, blood lipid profile; type: in vivo, humans
Procedure: In a randomized controlled intervention study with 153 healthy males and females the effect of drinks containing cocoa, added theobromine or a combination of cocoa and added theobromine was assessed on HDL cholesterol (HDL-C). As a secondary objective the effect of the various drinks on total cholesterol (TC), LDL cholesterol (LDL-C), Triglycerides (TG) and blood pressure (BP) was assessed. […] After a run-in period of 2 weeks the subjects consumed for 4 weeks daily (in the morning one hour before breakfast) 200 ml acidified dairy drink as in table 5, with added to that 1) none (control drink), 2) 5.9 g cocoa powder (Acticoa, Barry-Callebaut) containing about 500 mg polyphenols and 150 mg theobromine 3) about 850 mg synthetic theobromine (Fagron) and 4) 5.9 g cocoa powder containing 500 mg polyphenols and 150 mg theobromine plus added thereto about 850 mg synthetic theobromine (Fagron) (in total about 1 g theobromine). The synthetic theobromine used was: theobromine complying with European Pharmacopeia 5.7, as available from […], Belgium. For preparing the test products containing theobromine, theobromine was dissolved in a 1 M NaOH solution to create a theobromine stock solution, containing approximately 170 mg/ml of thebromine. The various drinks used in the trial have been made using the following processing: • mixing of the pectin with all of the sugar • dispersing the pectin/sugar mix with part of the demi water at 80° C. to prepare a pectin slurry • dissolving smp in the remainder of the demi water at a temperature of 40° C. • adding the cream • adding the xanthan gum under vigorous mixing for 15 minutes • adding the pectin slurry • adding sucralose • (depending on the drink: adding the cacao slowly under vigorous mixing) • (depending on the drink: adding the theobromine solution) • adding the sunflower oil • adding the flavours and colorants • acidifying the premix with lactic acid until pH 4.2 Inclusion criteria: generally healthy men and pre-menopausal women, age 40-70, with a 10-year risk of developing CHD<10%, not on active cholesterol-lowering or anti-hypertensive treatment and non-smoking. Details of the subject characteristics are set out in table 6. Venous blood samples were drawn from the antecubital vein in SST II advance BD tubes in fasting condition (morning, before breakfast) for blood lipid profile (HDL-C, LDL-C, total cholesterol (TC), triglycerides, HDL-C being herein high density lipoprotein cholesterol, and LDL-C herein being low density lipoprotein cholesterol). The blood samples were taken twice at baseline and were repeated twice after the end of the intervention period. All measurements were done with standard laboratory techniques. Serum lipid outcomes were done in the Intention to treat (ITT) and Per Protocol (PP) population. The statistical analysis was done according to a full 2×2 factorial design including interaction of theobromine and cocoa. Gender within treatment and baseline blood lipids were included in the model as covariates. A 2 sided p-value<0.05 was considered significant.

Wistar rats [3] = settings: 700 mg/kg body weight; cited from earlier work
Wistar rats [4] = settings: rats fed a diet supplemented with 0.3% of theobromine; cited from earlier work
[5] = pair-wise comparison, treatment A = Placebo, 4 weeks
[6] = after 4 weeks, ITT, baseline ratio and gender as covariables
[7] = fasting blood, after 4 weeks daily 200 ml drink, ITT, baseline and gender as covariables

Cn1cnc2c1c(=O)[nH]c(=O)n2C [Theobromine, 2,6-dihydroxy-3,7-dimethylpurine]
effect on blood pressure ([1]; 4 weeks, vs control): no significant effect
DBP, Mean ([1]; after 4 weeks, ITT, baseline DBP and gender as covariables): 75.0 mm Hg
SBP, Mean ([1]; after 4 weeks, ITT, baseline SBP and gender as covariables): 121.2 mm Hg
DBP, Change (A − B) [1, 5]: −0.20 mm Hg
SBP, Change (A − B) [1, 5]: 2.55 mm Hg
HDL-C increase compared to placebo ([2]; 4 weeks): ~10%
Serum LDL-C decrease compared to placebo ([2]; 4 weeks): about 5%
Serum LDL-C decrease ([2]; 4 weeks, compared to placebo): 0.18 mmol/L
increase in ApoA1 concentrations ([2]; 4 weeks, main apoprotein found in HDL particles): 0.11
Triglyceride, Mean ([2]; after 4 weeks, ITT, baseline and gender as covariables): 1.05 mmol/L
HDL-C/LDL-C ratio, Mean [2, 6]: 0.52
HDL-C/non-HDL-C ratio, Mean [2, 6]: 0.43
Total cholesterol, Mean ([2]; fasting blood, after 4 weeks daily 200 ml drink, ITT n=143, baseline and gender as covariables): 5.82 mmol/L
HDL-C, Mean [2, 7]: 1.75 mmol/L
LDL-C, Mean [2, 7]: 3.30 mmol/L
HDL-C, Change (A − B) [2, 5]: 0.159 mmol/L
HDL-C/LDL_c ratio, Change (A − B) [2, 5]: 0.12 and 0.117
HDL-C/non-HDL-C ratio, Change (A − B) [2, 5]: 0.13 and 0.126
LDL-C, Change (A − B) [2, 5]: -0.184 mmol/L
Total cholesterol, Change (A − B) [2, 5]: -0.038 mmol/L
Triglycerides, Change (A − B) [2, 5]: 0.018 mmol/L
HDL-C, Change (A − B) ([2]; pair-wise comparison, treatment A = Placebo, 4 weeks, listed as theobromine): 0.16 mmol/L
HDL-cholesterol (Wistar rats [3]): elevated
LDL-cholesterol (Wistar rats [3]): decreased
total cholesterol (Wistar rats [3]): decreased
triglycerides (Wistar rats [3]): decreased
Serum total cholesterol (Wistar rats [4]): significantly increased
